Laboratory results from article doi:10.1101/2024.12.12.628185v1 (biorxiv, 2024).

Target: T1, ERα (purified full-length human ERα) (Homo sapiens, UniProt P03372)
T1 sequence (P03372 1-595): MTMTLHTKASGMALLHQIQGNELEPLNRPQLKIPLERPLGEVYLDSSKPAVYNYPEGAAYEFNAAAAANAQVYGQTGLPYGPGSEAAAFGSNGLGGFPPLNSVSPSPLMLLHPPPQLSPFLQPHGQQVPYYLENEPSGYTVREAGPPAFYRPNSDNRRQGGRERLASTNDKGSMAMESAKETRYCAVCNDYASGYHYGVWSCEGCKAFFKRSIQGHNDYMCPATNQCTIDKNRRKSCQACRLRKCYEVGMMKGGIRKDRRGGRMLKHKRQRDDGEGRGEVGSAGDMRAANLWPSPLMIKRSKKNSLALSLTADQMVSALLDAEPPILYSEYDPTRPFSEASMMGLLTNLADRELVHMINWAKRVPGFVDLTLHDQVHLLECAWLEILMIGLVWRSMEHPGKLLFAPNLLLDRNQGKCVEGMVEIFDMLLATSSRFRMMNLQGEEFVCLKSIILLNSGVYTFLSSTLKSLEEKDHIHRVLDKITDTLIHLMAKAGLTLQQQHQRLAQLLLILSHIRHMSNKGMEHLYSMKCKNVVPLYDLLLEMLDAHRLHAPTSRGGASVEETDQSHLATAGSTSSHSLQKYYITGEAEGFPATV
Test: biochemical
Assay type: binding

CCCCC(CC)COC(=O)c1ccccc1C(=O)OCC(CC)CCCC (stereo not shown) [DEHP]
IC50: ~500 µM
